Activity calls are given as the source filed them.
Tests used:
[1] = target: Luciferin 4-monooxygenase (Photinus pyralis, UniProt P08659); assay: inhibition of purified Photinus pyralis luciferase – biochemical, luminescence, dose response (AID 1891)
[2] = Luminescence Cell-Based Dose Confirmation HTS to Identify Inhibitors of Platelet Dense Granule Release. [Related pubchem assays: 1663 (Primary HTS), 1678 (Summary of Project)]; type: functional
[3] = target: T1, Oxysterols receptor LXR-beta (Homo sapiens, UniProt P55055); type: functional, cell-based;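 further: Cell-based luminescence dose-response assay of agonist activity at LXR, run as a confirmatory counterscreen to a daf-12 agonist screen; HEK293 cells with Gal4-LXR fusion and GAL4-driven luciferase reporter; agonist potency from rising luciferase signal of a Gal4-LXR reporter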
T1 sequence (P55055 whole entry): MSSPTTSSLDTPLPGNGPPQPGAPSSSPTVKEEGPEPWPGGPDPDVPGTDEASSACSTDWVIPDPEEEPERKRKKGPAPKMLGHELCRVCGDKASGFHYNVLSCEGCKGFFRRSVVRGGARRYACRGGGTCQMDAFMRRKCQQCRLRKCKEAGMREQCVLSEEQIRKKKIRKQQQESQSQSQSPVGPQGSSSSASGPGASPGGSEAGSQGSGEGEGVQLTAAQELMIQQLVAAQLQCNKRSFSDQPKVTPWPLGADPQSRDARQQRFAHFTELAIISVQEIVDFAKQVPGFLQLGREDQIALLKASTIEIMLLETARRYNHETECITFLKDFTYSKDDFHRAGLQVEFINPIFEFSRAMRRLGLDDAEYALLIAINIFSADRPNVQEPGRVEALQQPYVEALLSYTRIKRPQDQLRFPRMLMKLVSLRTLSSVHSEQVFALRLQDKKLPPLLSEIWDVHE

cells [4] = assay: cells
Vero = assay: viability loss in Vero cells – cell-based, plate reader, cherry-pick samples, cytotoxicity control, dose response (AID 687020); type: functional; details: Chlorocebus sabaeus
A549 = assay: viability loss in A549 cells – cell-based, plate reader, cherry-pick samples, cytotoxicity control, dose response (AID 687028); type: functional; details: Homo sapiens
[5] = viability loss in HEK293 kidney cells – cell-based, cherry-picks, set 5, cytotoxicity control, dose response (AID 1053117); type: functional
[6] = viability loss in A549 lung cancer cells – cell-based, cherry-picks, […], cytotoxicity control, dose response (AID 1053119); type: functional
[7] = viability loss in HepG2 hepatoma cells – cell-based, cherry-picks, set 5, cytotoxicity control, dose response (AID 1053118); type: functional
[8] = Late stage assay provider results from the probe development effort to identify selective inhibitors of heat shock protein 90 (HSP90): Absorbance-based cell proliferation assay in MCF7 cells.; type: functional
[9] = Late stage assay provider results from the probe development effort to identify selective inhibitors of heat shock protein 90 (HSP90): Absorbance-based cell proliferation assay in SKBR3 cells.; type: functional; details: SK-BR-3
[10] = rescue of ΔF508 CFTR function, airway epithelium – human bronchial epithelial cells, plate reader, cherry-pick, two tests, dose response (AID 743267); type: functional, cell-based
HepG2 = assay: viability loss in HepG2 hepatoma cells – cell-based, cherry-picks, set 2, cytotoxicity control, dose response (AID 687002); type: functional; details: Homo sapiens
[11] = anti-trypanosomal activity in BESM host cells – imaging, CA-I/72 strain, bovine embryo skeletal muscle, dry powder, dose response (AID 651885); type: functional, cell-based
[12] = target: T2, Endoribonuclease toxin MazF (Escherichia coli K-12, UniProt P0AE70); assay: activation of MazEF endoribonuclease cleavage – biochemical, fluorescence, single-stranded RNA substrate, uHTS hits, dose response (AID 588481); type: functional
T2 sequence (P0AE70 whole entry): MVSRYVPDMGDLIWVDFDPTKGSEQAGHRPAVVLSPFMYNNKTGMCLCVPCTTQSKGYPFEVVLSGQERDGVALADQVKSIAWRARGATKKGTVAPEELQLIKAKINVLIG

[13] = target: T2, Endoribonuclease toxin MazF; assay: substrate-only fluorescence increase artefacts – biochemical, single-stranded RNase substrate, counter-screen for MazEF activator project, dose response (AID 588502); type: functional
cells [14] = assay: cells; remark: listed apart in the source
[15] = blockade of melanocortin 4 receptor signaling – cell-based, plate reader, cherry pick, counter-screen for LGR2 antagonist project, dose response (AID 743444); type: functional;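 further: transfected HEK 293 cells stimulated with alpha-MSH peptide; potency of inhibitors of the alpha-MSH evoked signal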
[16] = toxicity toward immortalized ovarian surface epithelium – cell-based, plate reader, dry powder samples, cytotoxicity control for PAX8 inhibitor project, dose response (AID 743045); type: functional
[17] = viability loss in HEK293 cells – cell-based, plate reader, cherry-picked samples, cytotoxicity control, dose response (AID 743446); type: functional
[18] = IGROV1 cell killing – plate reader, dry powder samples, PAX8 inhibitor project, dose response (AID 743043); type: functional, cell-based; details: IGROV-1
[19] = HEK293 cell viability loss – cherry-picked samples, cytotoxicity control, dose response (AID 1053185); type: functional, cell-based
[20] = A549 cell viability loss – cherry-picked samples, cytotoxicity control, dose response (AID 1053184); type: functional, cell-based
[21] = A549 cell cytotoxicity, dose response, cytotoxicity control, plate reader, cherry-pick, antagonist series (AID 743412); type: functional, cell-based
[22] = blockers of bursicon-stimulated LGR2 cAMP reporter – cell-based, HEK293, CRE-luciferase reporter, cherry pick, set 2, dose response (AID 743343); type: functional;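 further: transfected cells were stimulated with diluted bursicon conditioned medium after compound addition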
[23] = OVCAR8 cell viability loss – plate reader, dry powder samples, PAX8 project, dose response (AID 743197); type: functional, cell-based; details: OVCAR-8
[24] = toxicity toward HepG2 liver cells – cell-based, plate reader, cherry-pick, antagonist series, cytotoxicity control, dose response (AID 743416); type: functional
[25] = HepG2 cell viability loss – cherry-picked samples, cytotoxicity control, dose response (AID 1053183); type: functional, cell-based
[26] = OVCAR-3 cell viability loss – plate reader, dry powder samples, PAX8 inhibitor project, dose response (AID 743044); type: functional, cell-based
Paired box protein Pax-8 = Paired box protein Pax-8 (Homo sapiens, UniProt Q06710); assay: PAX8 transcriptional activity inhibition in RMG-I – RMG-I cells, luciferase, cherry-pick, dose response (AID 687027); type: functional, cell-based;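 further: luciferase reporter driven by Pax8 target thyroperoxidase promoter measured by SteadyGlo luminescence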
Paired box protein Pax-8, sequence (Q06710 whole entry): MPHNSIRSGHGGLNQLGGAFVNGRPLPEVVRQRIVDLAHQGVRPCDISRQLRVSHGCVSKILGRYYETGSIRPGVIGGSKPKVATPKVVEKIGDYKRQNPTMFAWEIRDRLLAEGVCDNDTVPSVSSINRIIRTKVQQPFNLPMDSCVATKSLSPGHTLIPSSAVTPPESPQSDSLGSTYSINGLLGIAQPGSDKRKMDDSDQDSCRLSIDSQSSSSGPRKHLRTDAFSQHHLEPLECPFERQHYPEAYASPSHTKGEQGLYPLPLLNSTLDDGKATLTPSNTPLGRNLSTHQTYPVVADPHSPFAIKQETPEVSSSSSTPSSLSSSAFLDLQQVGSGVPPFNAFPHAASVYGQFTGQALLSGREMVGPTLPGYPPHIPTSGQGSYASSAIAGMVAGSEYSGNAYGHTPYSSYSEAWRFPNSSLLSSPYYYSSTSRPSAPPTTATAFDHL

[27] = target: T3, Polyadenylate-binding protein 1 (Homo sapiens, UniProt P11940); assay: MLLE binding blockers, Cy5 peptide tracer – biochemical, fluorescence polarization, Cy5-PAM2 peptide, secondary, miRNA deadenylation inhibitor project, dose response (AID 602260); type: functional; details: read-out: IC50_Mean
T3 sequence (P11940 whole entry): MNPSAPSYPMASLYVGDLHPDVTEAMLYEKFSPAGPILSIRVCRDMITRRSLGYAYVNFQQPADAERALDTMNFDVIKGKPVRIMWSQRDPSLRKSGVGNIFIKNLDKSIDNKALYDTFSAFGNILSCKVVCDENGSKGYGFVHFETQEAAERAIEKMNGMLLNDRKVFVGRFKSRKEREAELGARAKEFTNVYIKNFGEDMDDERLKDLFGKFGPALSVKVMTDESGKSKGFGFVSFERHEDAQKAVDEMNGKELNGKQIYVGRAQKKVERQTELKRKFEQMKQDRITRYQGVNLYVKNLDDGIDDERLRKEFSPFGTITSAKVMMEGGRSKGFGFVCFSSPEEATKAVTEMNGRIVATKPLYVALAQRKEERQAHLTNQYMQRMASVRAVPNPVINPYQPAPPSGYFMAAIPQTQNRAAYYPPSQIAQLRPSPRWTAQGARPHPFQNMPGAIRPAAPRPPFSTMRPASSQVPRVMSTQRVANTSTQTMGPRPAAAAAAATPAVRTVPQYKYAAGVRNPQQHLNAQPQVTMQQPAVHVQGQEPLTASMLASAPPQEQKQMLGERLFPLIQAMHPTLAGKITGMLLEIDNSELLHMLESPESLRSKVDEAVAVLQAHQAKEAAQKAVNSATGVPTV

[28] = Counterscreen for activators of the function of SWI/SNF related, matrix associated, actin dependent regulator of chromatin, subfamily a, member 2 (SMARCA2, BRM): Luminescence-based cell-based high throughput dose response assay to identify non-selective compounds using the VP16 reporter assay.; type: functional
[29] = target: T3, Polyadenylate-binding protein 1; assay: MLLE domain peptide-binding blockers, IC50 – biochemical, fluorescence polarization, FITC-PAM2 peptide, dose response (AID 602259); type: functional; details: read-out: IC50_Mean
[30] = target: SWI/SNF-related matrix-associated actin-dependent regulator of chromatin subfamily A member 2 (Homo sapiens, UniProt P51531); assay: Luminescence-based cell-based high throughput dose response assay to identify activators of the function of SWI/SNF related, matrix associated, actin dependent regulator of chromatin, subfamily a, member 2 (SMARCA2, BRM).; type: functional
SWI/SNF-related matrix-associated actin-dependent regulator of chromatin subfamily A member 2, sequence (P51531 whole entry): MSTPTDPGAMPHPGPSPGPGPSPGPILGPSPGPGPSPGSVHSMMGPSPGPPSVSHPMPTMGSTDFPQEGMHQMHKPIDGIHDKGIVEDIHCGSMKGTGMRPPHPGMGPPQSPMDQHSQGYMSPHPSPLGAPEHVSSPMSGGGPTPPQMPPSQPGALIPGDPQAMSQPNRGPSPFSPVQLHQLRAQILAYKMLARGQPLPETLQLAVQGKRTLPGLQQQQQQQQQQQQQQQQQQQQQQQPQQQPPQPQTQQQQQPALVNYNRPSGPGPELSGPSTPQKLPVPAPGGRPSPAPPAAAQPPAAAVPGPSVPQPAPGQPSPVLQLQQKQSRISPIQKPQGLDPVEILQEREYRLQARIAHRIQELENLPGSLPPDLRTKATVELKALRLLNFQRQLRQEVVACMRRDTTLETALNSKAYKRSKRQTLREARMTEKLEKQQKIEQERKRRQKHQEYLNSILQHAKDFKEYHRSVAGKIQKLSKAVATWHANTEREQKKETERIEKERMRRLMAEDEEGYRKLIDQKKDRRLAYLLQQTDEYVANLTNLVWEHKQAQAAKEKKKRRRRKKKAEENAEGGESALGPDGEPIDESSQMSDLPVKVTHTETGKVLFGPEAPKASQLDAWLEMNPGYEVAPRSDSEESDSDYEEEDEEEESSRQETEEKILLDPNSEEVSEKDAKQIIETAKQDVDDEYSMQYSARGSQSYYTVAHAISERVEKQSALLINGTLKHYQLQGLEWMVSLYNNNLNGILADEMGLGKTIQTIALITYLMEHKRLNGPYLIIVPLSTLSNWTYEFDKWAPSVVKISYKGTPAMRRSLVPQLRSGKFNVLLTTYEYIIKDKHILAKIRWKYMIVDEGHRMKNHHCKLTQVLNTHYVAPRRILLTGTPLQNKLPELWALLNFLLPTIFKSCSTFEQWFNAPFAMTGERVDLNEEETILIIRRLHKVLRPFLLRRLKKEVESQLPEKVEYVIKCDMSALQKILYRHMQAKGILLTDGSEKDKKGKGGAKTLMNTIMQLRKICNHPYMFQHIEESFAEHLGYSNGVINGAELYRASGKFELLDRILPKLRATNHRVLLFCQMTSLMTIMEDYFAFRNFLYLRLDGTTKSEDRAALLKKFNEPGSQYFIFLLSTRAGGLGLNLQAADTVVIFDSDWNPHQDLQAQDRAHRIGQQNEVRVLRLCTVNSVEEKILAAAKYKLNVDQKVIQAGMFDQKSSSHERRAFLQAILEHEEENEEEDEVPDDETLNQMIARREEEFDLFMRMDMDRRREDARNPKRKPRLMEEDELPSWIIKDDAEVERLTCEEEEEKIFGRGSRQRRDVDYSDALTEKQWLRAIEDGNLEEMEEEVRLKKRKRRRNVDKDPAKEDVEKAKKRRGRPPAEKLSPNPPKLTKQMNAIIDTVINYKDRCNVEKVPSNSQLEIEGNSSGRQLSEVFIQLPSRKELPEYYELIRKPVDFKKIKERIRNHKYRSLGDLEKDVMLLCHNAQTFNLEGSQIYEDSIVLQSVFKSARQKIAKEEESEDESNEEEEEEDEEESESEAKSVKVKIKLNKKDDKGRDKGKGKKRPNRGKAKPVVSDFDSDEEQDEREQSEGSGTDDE

Luciferin 4-monooxygenase, sequence (P08659 whole entry): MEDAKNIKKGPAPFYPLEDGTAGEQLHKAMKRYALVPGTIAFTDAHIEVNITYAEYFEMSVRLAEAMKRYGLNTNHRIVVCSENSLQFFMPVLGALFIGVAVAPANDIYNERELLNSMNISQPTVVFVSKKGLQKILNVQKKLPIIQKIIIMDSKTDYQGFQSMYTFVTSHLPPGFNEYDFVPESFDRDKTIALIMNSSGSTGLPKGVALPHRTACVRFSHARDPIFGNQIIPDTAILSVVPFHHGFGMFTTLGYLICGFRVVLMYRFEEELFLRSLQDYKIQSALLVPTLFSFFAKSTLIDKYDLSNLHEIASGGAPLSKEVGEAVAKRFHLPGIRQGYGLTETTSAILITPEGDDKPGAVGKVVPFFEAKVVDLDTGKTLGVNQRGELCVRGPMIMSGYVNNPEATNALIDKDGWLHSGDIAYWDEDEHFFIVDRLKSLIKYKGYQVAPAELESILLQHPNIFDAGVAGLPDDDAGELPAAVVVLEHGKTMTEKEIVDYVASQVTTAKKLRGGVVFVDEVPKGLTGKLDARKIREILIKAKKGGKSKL

With `N=C(NOC(=O)c1ccc(Cl)cc1Cl)c1ccccc1` the EC50 [1] was 1.06 µM (active), the EC50 [2] was 6.01 µM (active) and the EC50 [3] was > 67.5 µM (inactive). For the same compound, the EC50 (cells [4]) was > 67.5 µM (inactive).

In the case of `COc1ccccc1C(=O)N1[C@@H](C(C)C)COc2cc(Br)ccc2S1(=O)=O`, the AC50 (Vero) was 28 µM (active) and the AC50 (A549) was 24.4 µM (active).

In the case of `O=C(Nc1ccc(Cl)cc1)N1C[C@H]2[C@@H](c3ccccc31)[C@H](CO)N2CC1CCCC1`, the AC50 [5] was 40.4 µM (active), the AC50 [6] was 47.5 µM (active) and the AC50 [7] was 35.8 µM (active).

With `COc1ccc(NC(=O)c2coc(=O)c(Br)c2)cc1` the IC50 [8] was 2.4 µM (active) and the IC50 [9] was 8.2 µM (active).

For `COc1cccc(-c2ccc([C@@H]3[C@@H]4CN(S(=O)(=O)c5cccc(OC)c5)C[C@H]3N4)cc2)c1`, the AC50 [10] was 13.5 µM (active).

With `O=C(CSc1ncnc2c1cnn2-c1ccccc1)Nc1ccc2c(c1)OCO2` the AC50 (HepG2) was 14 µM (active).

For `C[C@@H]1CN([C@@H](C)CO)C(=O)c2cccc(NC(=O)c3ccncc3)c2O[C@H]1CN(C)C`, the IC50 [11] was > 20 µM (inactive).

For `CCOC(=O)c1cc2c(=O)n3ccccc3nc2n(Cc2ccc(Cl)cc2)c1=N`, the EC50 [12] was > 99 µM (inactive), the EC50 [13] was > 99 µM (inactive) and the AC50 (cells [14]) was 1.99 µM (active).

In the case of `Cc1ccccc1S(=O)(=O)N1C[C@@H]2N[C@H](C1)[C@H]2c1ccc(-c2cccc(C#N)c2)cc1`, the AC50 [15] was 14.3 µM (active), the AC50 [16] was 51.4 µM (active) and the AC50 [17] was 20.4 µM (active). For the same compound, the AC50 [18] was 20.5 µM (active), the AC50 [19] was 35.5 µM (active) and the AC50 [20] was 36.5 µM (active). For the same compound, the AC50 [21] was 7.87 µM (active), the AC50 [22] was 14.8 µM (active) and the AC50 [23] was 39.1 µM (active). The AC50 [24] was 9.35 µM (active), the AC50 [25] was 31.9 µM (active) and the AC50 [26] was 21.7 µM (active). For the same compound, the AC50 (Paired box protein Pax-8) was 3.75 µM (active).

In the case of `Cn1sccc1=O`, the IC50 [27] was > 66 µM (inactive), the EC50 [28] was > 91.2 µM (inactive) and the IC50 [29] was > 66 µM (inactive). For the same compound, the EC50 [30] was > 91.2 µM (inactive).

Source: ChEMBL document CHEMBL1201862, “PubChem BioAssay data set” (2004)
